Source: PMC11089503, “Exploring Subsite Selectivity within Plasmodium vivaxN-Myristoyltransferase Using Pyrazole-Derived Inhibitors” (Journal of Medicinal Chemistry, 2024)
Read-outs that look alike come from different tables or passages of the source.

Columns and labels:
HsNMT Isoform 1 = molecular target: T1, HsNMT Isoform 1 (Homo sapiens, UniProt P30419); assay: NMT activity assay (CPM fluorescence detection of free CoA), HsNMT
T1 sequence (P30419 1-496): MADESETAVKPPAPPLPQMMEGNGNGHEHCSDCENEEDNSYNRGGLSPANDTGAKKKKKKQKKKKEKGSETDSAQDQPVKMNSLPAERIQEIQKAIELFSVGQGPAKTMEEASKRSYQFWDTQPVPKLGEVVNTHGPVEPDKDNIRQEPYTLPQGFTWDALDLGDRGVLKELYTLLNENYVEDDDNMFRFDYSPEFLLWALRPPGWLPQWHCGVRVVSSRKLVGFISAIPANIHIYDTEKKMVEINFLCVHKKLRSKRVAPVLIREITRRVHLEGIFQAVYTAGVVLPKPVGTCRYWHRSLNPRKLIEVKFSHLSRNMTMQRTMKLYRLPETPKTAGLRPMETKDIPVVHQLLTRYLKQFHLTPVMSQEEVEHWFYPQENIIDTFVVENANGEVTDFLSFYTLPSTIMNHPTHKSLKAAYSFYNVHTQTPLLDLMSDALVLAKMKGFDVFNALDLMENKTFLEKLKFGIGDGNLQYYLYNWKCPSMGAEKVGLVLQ

PvNMT [1] = molecular target: T2, PvNMT (Plasmodium vivax, UniProt A5K1A2); assay: NMT activity assay (CPM fluorescence detection of free CoA), PvNMT
T2 sequence (A5K1A2 entry or part of it): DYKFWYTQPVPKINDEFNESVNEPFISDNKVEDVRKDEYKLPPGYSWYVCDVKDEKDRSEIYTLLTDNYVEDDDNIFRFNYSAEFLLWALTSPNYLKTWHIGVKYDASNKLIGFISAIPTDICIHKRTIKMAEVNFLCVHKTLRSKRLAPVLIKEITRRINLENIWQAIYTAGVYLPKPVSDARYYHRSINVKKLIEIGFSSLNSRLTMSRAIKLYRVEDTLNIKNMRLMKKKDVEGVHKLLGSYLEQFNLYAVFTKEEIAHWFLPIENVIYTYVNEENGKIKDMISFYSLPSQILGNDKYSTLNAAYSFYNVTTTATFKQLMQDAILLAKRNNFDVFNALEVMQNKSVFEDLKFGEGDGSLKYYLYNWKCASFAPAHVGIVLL

PvNMT [2] = molecular target: T2, PvNMT; conditions: cited from earlier work
HsNMT1/2 = test system: HsNMT1/2; set-up: method as in PMID 29760414; conditions: cited from earlier work

SMILES | IC50 (HsNMT Isoform 1) | IC50 (PvNMT [1]) | other results
Cc1c(CCOc2ccccc2-c2ccnc(N3CCNCC3)c2)c(C(=O)Nc2cccnc2)nn1C [Compound 8a, 1,5-Dimethyl-4-(2-(2-(2-(piperazin-1-yl)pyridin-4-yl)phenoxy)ethyl)-N-(pyridin-3-yl)-1H-pyrazole-3-carboxamide] | 2520 nM | 506 nM | –
Cc1c(CCOc2ccccc2-c2ccnc(N3CCNCC3)c2)c(C(=O)N2CCOCC2)nn1C [Compound 8b, (1,5-Dimethyl-4-(2-(2-(2-(piperazin-1-yl)pyridin-4-yl)phenoxy)ethyl)-1H-pyrazol-3-yl)(morpholino)methanone] | 763 nM | 24 nM | –
Cc1c(CCOc2ccccc2-c2ccnc(N3CCNCC3)c2)c(C(=O)NCC(=O)O)nn1C [Compound 8c, (1,5-Dimethyl-4-(2-(2-(2-(piperazin-1-yl)pyridin-4-yl)phenoxy)ethyl)-1H-pyrazole-3-carbonyl)glycine] | 116 nM | 147 nM | –
Cc1c(CCOc2ccccc2-c2ccnc(N3CCNCC3)c2)c(C(=O)NCCN)nn1C [Compound 8f, N-(2-Aminoethyl)-1,5-dimethyl-4-(2-(2-(2-(piperazin-1-yl)pyridin-4-yl)phenoxy)ethyl)-1H-pyrazole-3-carboxamide] | 103 nM | 89 nM | –
CC(=O)CNC(=O)c1nn(C)c(C)c1CCOc1ccccc1-c1ccnc(N2CCNCC2)c1 [Compound 8g, 1,5-Dimethyl-N-(2-oxopropyl)-4-(2-(2-(2-(piperazin-1-yl)pyridin-4-yl)phenoxy)ethyl)-1H-pyrazole-3-carboxamide] | 1590 nM | 32 nM | SI (enzyme selectivity) (PvNMT [1]; calculated as HsNMT IC50/PvNMT IC50): > 31
Cc1c(CCOc2ccccc2-c2ccnc(N3CCNCC3)c2)c(C(=O)NCCO)nn1C [Compound 8h, N-(2-Hydroxyethyl)-1,5-dimethyl-4-(2-(2-(2-(piperazin-1-yl)pyridin-4-yl)phenoxy)ethyl)-1H-pyrazole-3-carboxamide] | 504 nM | 39 nM | –
COC(=O)CNC(=O)c1nn(C)c(C)c1CCOc1ccccc1-c1ccnc(N2CCNCC2)c1 [Compound 8i, Methyl (1,5-Dimethyl-4-(2-(2-(2-(piperazin-1-yl)pyridin-4-yl)phenoxy)ethyl)-1H-pyrazole-3-carbonyl)glycinate] | 57 nM | 20 nM | –
Cc1c(CCOc2cccnc2-c2ccnc(N3CCNCC3)c2)c(C(=O)Nc2cccnc2)nn1C [Compound 9a, 1,5-Dimethyl-4-(2-((2′-(piperazin-1-yl)-[2,4′-bipyridin]-3-yl)oxy)ethyl)-N-(pyridin-3-yl)-1H-pyrazole-3-carboxamide] | – | 1020 nM | –
Cc1c(CCOc2cccnc2-c2ccnc(N3CCNCC3)c2)c(C(=O)N2CCOCC2)nn1C [Compound 9b, (1,5-Dimethyl-4-(2-((2′-(piperazin-1-yl)-[2,4′-bipyridin]-3-yl)oxy)ethyl)-1H-pyrazol-3-yl)(morpholino)methanone] | 1650 nM | 46 nM | –
Cc1c(CCOc2cccnc2-c2ccnc(N3CCNCC3)c2)c(C(=O)NCC(=O)O)nn1C [Compound 9c, (1,5-Dimethyl-4-(2-((2′-(piperazin-1-yl)-[2,4′-bipyridin]-3-yl)oxy)ethyl)-1H-pyrazole-3-carbonyl)glycine] | 11100 nM | 230 nM | –
Cc1c(CCOc2cccnc2-c2ccnc(N3CCNCC3)c2)c(C(=O)NCC(N)=O)nn1C [Compound 9d, N-(2-Amino-2-oxoethyl)-1,5-dimethyl-4-(2-((2′-(piperazin-1-yl)-[2,4′-bipyridin]-3-yl)oxy)ethyl)-1H-pyrazole-3-carboxamide] | 11000 nM | 181 nM | –
Cc1c(CCOc2ccc3ccccc3c2-c2ccnc(N3CCNCC3)c2)c(C(=O)Nc2cccnc2)nn1C [Compound 10a, 1,5-Dimethyl-4-(2-((1-(2-(piperazin-1-yl)pyridin-4-yl)naphthalen-2-yl)oxy)ethyl)-N-(pyridin-3-yl)-1H-pyrazole-3-carboxamide] | – | 5070 nM | –
Cc1c(CCOc2ccc3ccccc3c2-c2ccnc(N3CCNCC3)c2)c(C(=O)N2CCOCC2)nn1C [Compound 10b, (1,5-Dimethyl-4-(2-((1-(2-(piperazin-1-yl)pyridin-4-yl)naphthalen-2-yl)oxy)ethyl)-1H-pyrazol-3-yl)(morpholino)methanone] | 11400 nM | 91 nM | –
Cc1c(CCOc2ccc3ccccc3c2-c2ccnc(N3CCNCC3)c2)c(C(=O)NCC(=O)O)nn1C [Compound 10c, (1,5-Dimethyl-4-(2-((1-(2-(piperazin-1-yl)pyridin-4-yl)naphthalen-2-yl)oxy)ethyl)-1H-pyrazole-3-carbonyl)glycine] | – | 1060 nM | –
Cc1c(CCOc2ccc3ccccc3c2-c2ccnc(N3CCNCC3)c2)c(C(=O)NCC(N)=O)nn1C [Compound 10d, N-(2-Amino-2-oxoethyl)-1,5-dimethyl-4-(2-((1-(2-(piperazin-1-yl)pyridin-4-yl)naphthalen-2-yl)oxy)ethyl)-1H-pyrazole-3-carboxamide] | – | 1000 nM | –
Cc1nn(C)c(C)c1CCOc1cc(F)ccc1-c1ccc2c(c1)c(CN(C)C)nn2C [IMP-1002] | – | – | IC50 (PvNMT [2]): 3 nM
Cc1nn(C)c(C)c1CCOc1c(-c2ccc3c(c2)c(CN(C)C)nn3C)ccc(F)c1F [IMP-1088] | – | – | HsNMT1/2 IC50 (HsNMT1/2): picomolar
